The test system of test [1] is store-operated calcium entry in RBL-2H3 cells. Kind of test: Fluorescence-based assay of store-operated calcium entry in RBL-2H3 cells. The following applies: Rattus norvegicus, thapsigargin, FLIPR Fluo-4, read-out: RBL-2H3 (IC50, μmol). It is filed as cell-based. The procedure:
B. Fluorescence-Based Assay of Store-Operated Calcium Entry in RBL-2H3 Cells.
RBL-2H3 cells are obtained from ATCC and maintained in complete medium with 10% FBS at 37° C./6% CO2.
The day prior to performing the assay, RBL-2H3 cells are plated in 50 μL of complete medium in a 384 well plate. Cells are grown at 37° C./6% CO2 overnight and grow to 50-60% confluence by the next day. On the assay day, 1.5 μM Fluo-4-AM dye (Invitrogen) in complete medium is added and incubated for 1 hour at RT. Cells are washed twice in Ca^2+-free HBSS buffer and 35 μL Ca^2+-free HBSS buffer is added to each well. 10 μL of a test compound prepared in a Ca^2+-free HBSS solution at 4.5× of the desired concentration is added to a well and incubated for 5 minutes at RT. 10 μL of thapsigargin prepared in a Ca^2+-free HBSS solution at 5.5× of the desired concentration (5.5 uM) is added to each well and incubated for an additional 25 minutes. The initial baseline fluorescence signal is measured with a FLIPR^384 (Molecular Devices) plate reader. 5 μL of 12× calcium in HBSS (12 mM) is added and changes in cellular fluorescence are measured with the FLIPR^384 plate reader. In each well, the change in the fluorescent signal as a function of time due to calcium entry into the cell is determined by calculating the difference between the fluorescent signal measured 7 seconds after calcium addition and the initial baseline fluorescence signal at time zero (t=0). This parameter is designated Upslope. The IC50 value is calculated as the concentration at which 50% of the Upslope is inhibited.

The target in test [2] is T1, recombinant human STIM1 and Orai1 (HEK-293 cells) (Homo sapiens, UniProt Q96D31).
T1 construct: expressed in transfected cells; host or cells: HEK-293 cells stably expressing both proteins
T1 sequence (Q96D31 whole entry): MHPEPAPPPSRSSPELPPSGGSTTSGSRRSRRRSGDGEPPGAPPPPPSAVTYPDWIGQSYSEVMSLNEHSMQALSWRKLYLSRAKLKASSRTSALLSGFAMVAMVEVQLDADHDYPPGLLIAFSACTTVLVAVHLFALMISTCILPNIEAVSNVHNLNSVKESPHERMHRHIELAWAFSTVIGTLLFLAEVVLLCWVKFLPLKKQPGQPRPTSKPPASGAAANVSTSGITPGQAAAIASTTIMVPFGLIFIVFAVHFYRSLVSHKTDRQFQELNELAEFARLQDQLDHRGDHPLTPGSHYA
The test is described as follows: Fluorescence-based assay of store-operated calcium entry in Orai1/STIM1 stable cells. In kind it is cell-based. Set-up: key to Orai1/STIM1 (IC50, μmol): A < 0.6 μmol; 0.6 μmol ≦ B ≦ 1.2 μmol; C > 1.2 μmol; — = no fit. The following applies: for Orai1/STIM1 (IC50, μmol): FLIPR fluo-4; for IC50: FLIPR fluo-4, read-out: Orai1/STIM1 (IC50, μmol). As for the experimental part: A. Fluorescence-Based Assay of Store-Operated Calcium Entry in Orai1/STIM1 Stable Cells.
Cells stably expressing recombinant human STIM1 and Orai1 are generated by transfecting a human Orai1 expression plasmid (pcDNA3.1-Orai1-cmyc) into HEK-293 cells stably overexpressing human STIM1 (Roos et al. 2005 JCB 169(3): 435-445). Colonies of cells stably expressing both STIM1 and Orai1 proteins are selected and then subcloned by limiting dilution. Cells were cultured at 37° C./6% CO2 in complete medium with 10% FBS and appropriate selection markers.
The day prior to performing the assay Orai1/STIM1 stable cells are plated in 50 μL of complete medium at 90-95% confluence in a 384 well plate. Cells are grown at 37° C./6% CO2 overnight. On the day of the assay, 1.5 μM fluo-4-AM (Invitrogen) in complete medium is added to the cells, which are then incubated for 1 hour at RT. Cells are washed once in Ca^2+-free HBSS (Hank's buffered saline solution) and 35 μl of Ca^2+-free HBSS is added to each well. Test compounds are added to wells in a 10 μL Ca^2+-free HBSS solution, prepared at 4.5× the desired final concentration, and incubated for 30 minutes at RT. The initial baseline fluorescence signal is then measured with a FLIPR^384 (Molecular Devices) plate reader. Calcium entry is initiated by adding 5 μl of 10× CaCl2 (10 mM) in HBSS, and changes in cellular fluorescence are measured with the FLIPR^384 plate reader. In each well, the magnitude of the fluorescence signal as a result of calcium entry into the cell is determined by calculating the difference between the peak fluorescence signal measured after calcium addition and the initial baseline fluorescence signal (designated Peak-Basal). IC50 values are typically calculated as the concentration that inhibited 50% of the Peak-Basal signal (Table A).

In the case of `O=C(Nc1ccc(-c2cc3c(cc2Cl)OC(F)(F)O3)cn1)c1nsc(Cl)c1Cl` [Example 16, 4,5-dichloro-N-(5-(6-chloro-2,2-difluorobenzo[d][1,3]dioxol-5-yl)pyridin-2-yl)isothiazole-3-carboxamide], the IC50 in test [1] is more than 1200 nM. Further, the “Orai1/STIM1 (IC50, μmol)” value in test [2] is on record as “—”.

`Cc1nc(C(F)(F)F)c(C(=O)Nc2ccc(-c3cc4c(cc3Cl)OC(F)(F)O4)cn2)s1` [Example 17, N-(5-(6-chloro-2,2-difluorobenzo[d][1,3]dioxol-5-yl)pyridin-2-yl)-2-methyl-4-(trifluoromethyl)thiazole-5-carboxamide]: the IC50 was less than 600 nM in test [1] and more than 1200 nM in test [2].

Regarding `Cc1nocc1C(=O)Nc1ccc(-c2cc3c(cc2Cl)OC(F)(F)O3)cn1` [Example 18, N-(5-(6-chloro-2,2-difluorobenzo[d][1,3]dioxol-5-yl)pyridin-2-yl)-3-methylisoxazole-4-carboxamide], the IC50 in test [1] and in test [2] was less than 600 nM throughout.

On to `Cc1cnoc1C(=O)Nc1ccc(-c2cc3c(cc2Cl)OC(F)(F)O3)cn1` [Example 20, N-(5-(6-chloro-2,2-difluorobenzo[d][1,3]dioxol-5-yl)pyridin-2-yl)-4-methylisoxazole-5-carboxamide], for which the IC50 in test [1] and in test [2] was less than 600 nM each time.

As to `Cn1nc(C(F)(F)F)c(Cl)c1C(=O)Nc1cnc(-c2cc3c(cc2Cl)OC(F)(F)O3)cn1` [Example 24, 4-chloro-N-(5-(6-chloro-2,2-difluorobenzo[d][1,3]dioxol-5-yl)pyrazin-2-yl)-1-methyl-3-(trifluoromethyl)-1H-pyrazole-5-carboxamide], the IC50 in test [1] was less than 600 nM. For the same compound, the “Orai1/STIM1 (IC50, μmol)” value in test [2] is given as “—”.

With `Cc1onc(C(=O)Nc2cnc(-c3cc4c(cc3Cl)OC(F)(F)O4)cn2)c1C` [Example 25, N-(5-(6-chloro-2,2-difluorobenzo[d][1,3]dioxol-5-yl)pyrazin-2-yl)-4,5-dimethylisoxazole-3-carboxamide], the IC50 in test [1] is less than 600 nM; in test [2], 600 to 1200 nM.

For `Cc1cc(C(=O)Nc2cnc(-c3cc4c(cc3Cl)OC(F)(F)O4)cn2)n(C)n1` [Example 27, N-(5-(6-chloro-2,2-difluorobenzo[d][1,3]dioxol-5-yl)pyrazin-2-yl)-1,3-dimethyl-1H-pyrazole-5-carboxamide], the IC50 in test [1] was more than 1200 nM; in test [2], 600 to 1200 nM.

As for `Cn1ncc(Cl)c1C(=O)Nc1cnc(-c2cc3c(cc2Cl)OC(F)(F)O3)cn1` [Example 29, 4-chloro-N-(5-(6-chloro-2,2-difluorobenzo[d][1,3]dioxol-5-yl)pyrazin-2-yl)-1-methyl-1H-pyrazole-5-carboxamide], the IC50 in test [1] and in test [2] was less than 600 nM in each case.

For `Cc1noc(C)c1C(=O)Nc1cnc(-c2cc3c(cc2Cl)OC(F)(F)O3)cn1` [Example 31, N-(5-(6-chloro-2,2-difluorobenzo[d][1,3]dioxol-5-yl)pyrazin-2-yl)-3,5-dimethylisoxazole-4-carboxamide], the IC50 is less than 600 nM in test [1] and 600 to 1200 nM in test [2].

For the compound `CCn1nccc1C(=O)Nc1cnc(-c2cc3c(cc2Cl)OC(F)(F)O3)cn1` [Example 32, N-(5-(6-chloro-2,2-difluorobenzo[d][1,3]dioxol-5-yl)pyrazin-2-yl)-1-ethyl-1H-pyrazole-5-carboxamide], the IC50 in test [1] and in test [2] was less than 600 nM in each case.

For `O=C(Nc1cnc(-c2cc3c(cc2Cl)OC(F)(F)O3)cn1)c1ccnn1C(F)F` [Example 33, N-(5-(6-chloro-2,2-difluorobenzo[d][1,3]dioxol-5-yl)pyrazin-2-yl)-1-(difluoromethyl)-1H-pyrazole-5-carboxamide], the IC50 in test [1] was less than 600 nM. The “Orai1/STIM1 (IC50, μmol)” value in test [2] was “—”.

Consider `Cc1cc2c(cc1-c1ccc(NC(=O)c3cccn3C)nc1)OC(F)(F)O2` [Example 34, N-(5-(2,2-difluoro-6-methylbenzo[d][1,3]dioxol-5-yl)pyridin-2-yl)-1-methyl-1H-pyrrole-2-carboxamide], for which the IC50 in test [1] is less than 600 nM; in test [2], 600 to 1200 nM.

Consider `Cc1cc2c(cc1-c1cnc(NC(=O)c3c(Cl)cnn3C)cn1)OC(F)(F)O2` [Example 35, 4-chloro-N-(5-(2,2-difluoro-6-methylbenzo[d][1,3]dioxol-5-yl)pyrazin-2-yl)-1-methyl-1H-pyrazole-5-carboxamide], for which the IC50 in test [1] and in test [2] was less than 600 nM each time.

Take `Cc1cc2c(cc1-c1cnc(NC(=O)c3c(Cl)c(C(F)(F)F)nn3C)cn1)OC(F)(F)O2` [Example 37, 4-chloro-N-(5-(2,2-difluoro-6-methylbenzo[d][1,3]dioxol-5-yl)pyrazin-2-yl)-1-methyl-3-(trifluoromethyl)-1H-pyrazole-5-carboxamide]: the IC50 in test [1] is less than 600 nM; in test [2], 600 to 1200 nM.

On to `Cc1cc2c(cc1-c1cnc(NC(=O)c3c(C)noc3C)cn1)OC(F)(F)O2` [Example 38, N-(5-(2,2-difluoro-6-methylbenzo[d][1,3]dioxol-5-yl)pyrazin-2-yl)-3,5-dimethylisoxazole-4-carboxamide], for which the IC50 was less than 600 nM in test [1] and more than 1200 nM in test [2].

For `Cn1nc(C(F)(F)F)cc1-c1cnc(NC(=O)c2c(Cl)cnn2C)cn1` [Example 39, 4-chloro-1-methyl-N-(5-(1-methyl-3-(trifluoromethyl)-1H-pyrazol-5-yl)pyrazin-2-yl)-1H-pyrazole-5-carboxamide], the IC50 in test [1] and in test [2] was more than 1200 nM throughout.

`Cc1nn(C)c(C(=O)Nc2cnc(-c3cc(C(F)(F)F)nn3C)cn2)c1Cl` [Example 40, 4-chloro-1,3-dimethyl-N-(5-(1-methyl-3-(trifluoromethyl)-1H-pyrazol-5-yl)pyrazin-2-yl)-1H-pyrazole-5-carboxamide]: the IC50 in test [1] and in test [2] was more than 1200 nM each time.

For the compound `Cn1nc(C(F)(F)F)cc1-c1cnc(NC(=O)c2c(Cl)c(C(F)(F)F)nn2C)cn1` [Example 41, 4-chloro-1-methyl-N-(5-(1-methyl-3-(trifluoromethyl)-1H-pyrazol-5-yl)pyrazin-2-yl)-3-(trifluoromethyl)-1H-pyrazole-5-carboxamide], the IC50 in test [1] and in test [2] was more than 1200 nM in each case.

For `Cc1noc(C)c1C(=O)Nc1cnc(-c2cc(C(F)(F)F)nn2C)cn1` [Example 42, 3,5-dimethyl-N-(5-(1-methyl-3-(trifluoromethyl)-1H-pyrazol-5-yl)pyrazin-2-yl)isoxazole-4-carboxamide], the IC50 in test [1] and in test [2] was more than 1200 nM in each case.

In the case of `O=C(Nc1ncc(Oc2ccccc2C(F)(F)F)s1)c1c(F)cccc1F` [Example 43, (2,6-difluorophenyl)-N-{5-[2-(trifluoromethyl)phenoxy](1,3-thiazol-2-yl)}carboxamide], the figures for the IC50 in test [1] and in test [2] were 600 to 1200 nM and more than 1200 nM, respectively.

The values are drawn from patent US9856240B2, “Compounds that modulate intracellular calcium” (CalciMedica, Inc., priority 2011, dated 2018).
